pIC50: −log10 of the molar value. Square brackets hold non-standard residues; d marks the D form. Ends that are not written are not given here. Peptide text beside a SMILES is read from it. * marks the point of attachment. Phe(4-CN) = N#Cc1ccc(C[C@H](N)C(=O)O)cc1; Palmitoyl = CCCCCCCCCCCCCCCC(=O)*; rhodamine = not defined here; Nle = CCCC[C@H](N)C(=O)O; Dab = NCC[C@H](N)C(=O)O
Columns and labels:
MCF7 breast cancer cells = experiment: MTT assay of growth inhibition / cytotoxicity in MCF7 cells; format: cell-based, human; conditions: for Cell growth, % of control: 5 μM, MTT assay 48 hours after exposure
Method: Activity was determined by MTT assay 48 hours after exposure of the MCF7 cells to the test compounds.
Peptides were constructed based on variations of the amino acid sequence of the second helix of STAT1 and STAT5a. ε-palmitoyl lysine was substituted for penetratin as a cell-penetrating motif Several residues of penetratin sequence were preserved in the lipopeptide derivatives, which served as a linking sequence. The peptides and peptidomimetics were tested for growth inhibitory and cytotoxic activity in MCF7 cells using an MTT assay as described in Example 2.
Retro-inverso peptide analogues were prepared comprising variants of the sequence of helix 2 of STAT3. STAT3-Hel2A-2 (see Example 3) was used as a starting sequence, in which all but three residues of the original penetratin sequence was replaced with palmitic acid. The variants were produced by systematically truncating and substituting the base sequence. The compounds were used to treat MCF7 breast cancer cells. IC50 values were determined 48 hours after exposing the cells to the test compounds.

[1] = tested on: STAT3-dependent transcription (APRE reporter); experiment: APRE luciferase reporter in MCF-7 cells activated by LIF; format: cell-based, human; conditions: basal and LIF-stimulated
Excerpt: (§1) To evaluate effects of inhibitors on cytokine-activated transcription, luciferase reporter vectors APRE and ISRE were employed (Takeda et al., J. Endocrinol. 159, 323-330 (1998); Ivanova et al., J. Mol. Biol. 340, 641-653 (2004)). APRE was activated in MCF-7 cells by LIF.

STAT3 = target: T1, STAT3 (Homo sapiens, UniProt P40763); experiment: STAT3 tyrosine phosphorylation and expression in cytokine-treated breast cancer cells; format: cell-based; conditions: pretreatment 1 hour
T1 construct: endogenous in cells; host or cells: MCF-7 and MDA-MB-231
T1 sequence (P40763 whole entry): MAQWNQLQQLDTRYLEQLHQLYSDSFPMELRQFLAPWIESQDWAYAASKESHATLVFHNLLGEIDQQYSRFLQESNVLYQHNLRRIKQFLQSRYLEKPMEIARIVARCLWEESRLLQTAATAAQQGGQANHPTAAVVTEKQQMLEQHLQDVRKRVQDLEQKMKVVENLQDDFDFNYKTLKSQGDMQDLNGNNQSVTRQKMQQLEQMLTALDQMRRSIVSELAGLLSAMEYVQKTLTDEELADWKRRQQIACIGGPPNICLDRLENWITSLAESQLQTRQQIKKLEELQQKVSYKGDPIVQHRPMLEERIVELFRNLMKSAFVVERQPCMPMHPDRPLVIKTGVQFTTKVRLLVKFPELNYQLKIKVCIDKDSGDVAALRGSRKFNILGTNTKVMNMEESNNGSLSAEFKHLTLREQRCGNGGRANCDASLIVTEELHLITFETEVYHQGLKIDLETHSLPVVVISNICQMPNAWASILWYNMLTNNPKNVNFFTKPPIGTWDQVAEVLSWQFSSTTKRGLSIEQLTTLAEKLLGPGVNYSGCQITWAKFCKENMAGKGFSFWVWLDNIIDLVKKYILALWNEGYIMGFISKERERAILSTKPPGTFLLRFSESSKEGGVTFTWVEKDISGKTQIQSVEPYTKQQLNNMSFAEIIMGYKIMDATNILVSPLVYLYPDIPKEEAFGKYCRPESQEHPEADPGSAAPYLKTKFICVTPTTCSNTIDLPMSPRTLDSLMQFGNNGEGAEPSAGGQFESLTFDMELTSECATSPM
Method: (§2) MCF-7 and MDA-MB-231 cells were treated with Leukemia Inhibitory Factor (LIF) to activate STAT3 and with Interferon gamma (IFN-γ) to activate STAT1 signaling. In MCF-7 cells, LIF induced selective STAT3 tyrosine phosphorylation and IFN-γ induced selective STAT1 tyrosine phosphorylation. In MDA-MB-231 cells, however, each cytokine induced both STAT3 and STAT1 tyrosine phosphorylation.

[2] = tested on: STAT1-dependent transcription (ISRE reporter); experiment: ISRE luciferase reporter in MCF-7 cells activated by IFN-γ; format: cell-based, human; conditions: IFN-γ-stimulated
Excerpt: as §1

STAT1 = target: T2, STAT1 (Homo sapiens, UniProt P42224); experiment: STAT1 tyrosine phosphorylation and expression in cytokine-treated breast cancer cells; format: cell-based; conditions: pretreatment 1 hour
T2 construct: endogenous in cells; host or cells: MCF-7 and MDA-MB-231
T2 sequence (P42224 1-750): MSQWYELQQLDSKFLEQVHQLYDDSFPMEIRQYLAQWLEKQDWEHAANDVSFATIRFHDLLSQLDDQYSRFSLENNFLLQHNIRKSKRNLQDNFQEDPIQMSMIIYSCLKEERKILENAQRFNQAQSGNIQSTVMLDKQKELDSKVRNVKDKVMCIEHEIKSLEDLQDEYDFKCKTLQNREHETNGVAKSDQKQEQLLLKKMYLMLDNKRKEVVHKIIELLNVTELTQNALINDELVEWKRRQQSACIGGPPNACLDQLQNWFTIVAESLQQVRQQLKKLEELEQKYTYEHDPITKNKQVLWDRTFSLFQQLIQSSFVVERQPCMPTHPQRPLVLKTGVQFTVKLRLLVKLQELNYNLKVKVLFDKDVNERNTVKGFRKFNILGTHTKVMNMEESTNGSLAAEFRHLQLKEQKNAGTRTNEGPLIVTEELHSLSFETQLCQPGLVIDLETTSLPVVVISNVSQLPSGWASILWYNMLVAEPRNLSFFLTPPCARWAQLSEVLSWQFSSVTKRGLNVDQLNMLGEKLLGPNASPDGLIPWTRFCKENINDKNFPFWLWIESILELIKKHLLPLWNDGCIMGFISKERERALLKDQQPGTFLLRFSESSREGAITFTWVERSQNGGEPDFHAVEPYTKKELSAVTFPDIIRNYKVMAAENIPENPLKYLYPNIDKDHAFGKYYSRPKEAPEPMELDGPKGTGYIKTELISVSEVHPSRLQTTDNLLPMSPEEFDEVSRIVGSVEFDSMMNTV
Method: as §2

STAT3 signaling = experiment: Luciferase reporter assay (Mercury JAK-STAT Pathway Profiling system, GAS or STAT3 elements) in MCF-7 cells; format: cell-based, human; set-up: concentration or dose not given beside the values; conditions: luciferase reporter with GAS or STAT3 elements, basal expression, within one hour after treatment
Method: Selected peptides were tested for inhibition of STAT3 signaling in breast cancer cell lines by luciferase reporter assay. The assay employed the Mercury JAK-STAT Pathway Profiling system (Clontech), which includes the enhancer elements GAS (interferon-γ activating sequence) or STAT3 (a modified GAS sequence) introduced as three tandem copies upstream of the TA promoter in a luciferase reporter vector. STAT3 helix 2 analogs reduced basal expression of the reporter construct containing the GAS, or STAT3 elements in MCF-7 cells within one hour after treatment.

[3] = target: T3, STAT3 tagged with eGFP (eGFP-STAT3) (Homo sapiens, UniProt P40763); experiment: FRET in living cells expressing eGFP-STAT3; format: binding; conditions: HEK293 cells stably expressing eGFP-STAT3, 5 μM, one hour
T3 construct: expressed in transfected cells; host or cells: HEK293
T3 sequence (P40763 whole entry): as the sequence (P40763 whole entry) above
Method: Fluorescence Resonance Energy Transfer (FRET) method was used to determine whether STAT3-HEL2A-2 (see Example 3) interacts with STAT3 in living cells. HEK293 cells stably expressing STAT3 tagged with eGFP on its N-terminus (eGFP-STAT3) were treated for one hour with 5 μM of STAT3-HEL2A-2 labeled with rhodamine. An additional cysteine residue was positioned at the C-terminus of penetratin to facilitate labeling. Excitation of eGFP (donor) was facilitated using a 488-nm light source, and the emission spectrum was detected. In the absence of energy transfer between eGFP and rhodamine, excitation of eGFP would lead to an emission peak at 520-540 nm, whereas energy transfer from eGFP to an adjacent rhodamine fluorochrome acceptor would cause an emission in the 560-600 nm range. […] The photobleaching of rhodamine restored the fluorescence of eGFP.
Cells expressing eGFP-STAT3, eGFP-STAT1, or eGFP were treated with rhodamine-labeled STAT3-HEL2A-2 (see Example 6). Excitation of eGFP was facilitated, and the emission spectrum detected, in accordance with the methods described in Example 6. FRET efficiency was calculated using equation 1-D0/D1, where D0 is fluorescence intensity of eGFP before rhodamine photobleaching and D1 is the intensity after rhodamine photobleaching.

[4] = MCF-7 and MDA-MB-231 cells treated with LIF or IFN-γ

| Molecule | Cell growth, % of control (MCF7 breast cancer cells) [%] | Activity, % of control (STAT3 signaling) [%] | further results |
| --- | --- | --- | --- |
| Ac-DTRYLEQLHKLY (Ac-DTRYLEQLHKLY-penetratin; also: penetratin fused C-terminally) [Ac-Hel2A-2a-Pen, penetratin fused to the C-terminus] | 45 ± 5 | – | – |
| DSKFLEQVHKLY-penetratin [STAT1-Hel2A-2] | – | – | Effect on APRE reporter expression [1]: inhibited both basal and stimulated expression; Effect on expression level of STAT3 protein (STAT3; MCF-7 and MDA-MB-231 cells): did not change; Effect on tyrosine phosphorylation of STAT3 (STAT3; [4]): did not affect; Effect on ISRE reporter activation [2]: prevented cytokine-stimulated reporter activation; Effect on expression level of STAT1 protein (STAT1; MCF-7 and MDA-MB-231 cells): did not change; Effect on tyrosine phosphorylation of STAT1 (STAT1; [4]): did not affect |
| CCCCCCCCCCCCCCCC(=O)N[C@H](CCCCN)C(=O)N[C@H](Cc1ccc(O)cc1)C(=O)N[C@H](CC(C)C)C(=O)N[C@H](CCCCN)C(=O)N[C@H](Cc1c[nH]cn1)C(=O)N[C@H](CC(C)C)C(=O)N[C@H](CCC(N)=O)C(=O)N[C@H](CCC(=O)O)C(=O)N[C@H](CC(C)C)C(=O)N[C@H](Cc1ccc(O)cc1)C(=O)N[C@H](CCCNC(=N)N)C(=O)N[C@@H](C(=O)N[C@H](CC(=O)O)C(N)=O)[C@H](C)O [St3-H2a-2a-Pa17] (Palmitoyl-[dK][dY][dL][dK][dH][dL][dQ][dE][dL][dY][dR][dT][dD]-NH2; C-terminus assumed) | – | – | pIC50 (MCF7 breast cancer cells; read-out: IC50 (concentration causing 50% growth inhibition), 48 hours after exposure, Table 8): 5.74 |
| LDTRYLEQLHDabLY (LDTRYLEQLH[Dab]LY; also: penetratin fused C-terminally) [Hel2H-Pen, penetratin fused to the C-terminus] | 45 ± 4 | 43 ± 4 | – |
| DTRYLQELHKLYS (DTRYLQELHKLYS-penetratin) [Hel2E-Pen, penetratin fused to the C-terminus] | 46 ± 4 | – | – |
| Ac-DTRYLEQLHALY (Ac-DTRYLEQLHALY-penetratin; also: penetratin fused C-terminally) [Hel2A-3-Pen, penetratin fused to the C-terminus] | 93 ± 6 | 89 ± 9 | – |
| LDTRYLEQLHKLYS (LDTRYLEQLHKLYS-penetratin) [Hel2B-Pen, penetratin fused to the C-terminus] | 82 ± 6 | 100 ± 9 | – |
| DTRYLEQLHKLYS (DTRYLEQLHKLYS-penetratin) [Hel2A-Pen, penetratin fused to the C-terminus] | 44 ± 5 | 100 ± 9 | – |
| Ac-ATRYLEQLHKLY (Ac-ATRYLEQLHKLY-penetratin; also: penetratin fused C-terminally) [Hel2A-5-Pen, penetratin fused to the C-terminus] | 85 ± 5 | – | – |
| DTRYLEQLHKLY (DTRYLEQLHKLY-penetratin) [Hel2A-2a-Pen, penetratin fused to the C-terminus] | 65 ± 5 | – | – |
| DTRYLEQLHDabLYS (DTRYLEQLH[Dab]LYS; also: penetratin fused C-terminally) [Hel2F-Pen, penetratin fused to the C-terminus] | 60 ± 5 | – | – |
| Ac-DTRYLEQLHELY (Ac-DTRYLEQLHELY-penetratin; also: penetratin fused C-terminally) [Hel2A-4-Pen, penetratin fused to the C-terminus] | 91 ± 6 | – | – |
| LDTRYLEQLHQLYS (LDTRYLEQLHQLYS-penetratin) [Hel2-Pen] | 73 ± 5 | 56 ± 5 | – |
| DTRYLEQLHKLCyPheS (DTRYLEQLHKL[Phe(4-CN)]S; also: penetratin fused C-terminally) [Hel2C-Pen, CyPhe is 4-cyano phenylalanine; penetratin fused to the C-terminus] | 38 ± 4 | – | – |
| DTRYLEQLHDabLY (DTRYLEQLH[Dab]LY; also: penetratin fused C-terminally) [Hel2I-Pen, penetratin fused to the C-terminus] | 25 ± 4 | 53 ± 6 | – |
| rhodamine-labeled STAT3-HEL2A-2: STAT3-HEL2A-2 labeled with rhodamine via an additional cysteine residue at the C-terminus of penetratin (LDTRYLEQLHKLYRQIKIWFPNRR[Nle]KWKKC(rhodamine); reading uncertain) | – | – | Quenching of the normal fluorescence of eGFP [3]: 90% |
| DTKYLEQLHKLYS (DTKYLEQLHKLYS-penetratin) [Hel2D-Pen, penetratin fused to the C-terminus] | 42 ± 4 | – | – |
| LDTKYLEQLHDabLY (LDTKYLEQLH[Dab]LY; also: penetratin fused C-terminally) [Hel2K-Pen, penetratin fused to the C-terminus] | 8 ± 2 | – | – |
